Assays:
A375 cells = test: Cell viability, WST-1 reagent, A375 cells grown in two-dimension; format: cell-based; conditions: WST-1, 72 h post treatment
Experimental: Compound 1 (PRT7000467), Compound 2 (PRT7041128), and Compound 3 (PRT7081582) are not toxic to cells grown in two-dimension. A375 cells were cultured with RPMI and 10% FBS. The cells were treated with different concentrations of Compound 1 (PRT7000467) and Compound 2 (PRT7041128), then the viability of the cells was determined seventy-two hours post treatment using WST-1 reagent (Roche) (FIG. 1B)

A375 melanoma cells = test: Soft agar colony formation, A375 melanoma cells; format: cell-based; conditions: 14 days, MTT; for soft agar colony formation: A375 melanoma cells
Experimental: The assay was done using CYTOSELECT™ 96-Well In Vitro Tumor Sensitivity Assay kit from Cell Biolabs, Inc. (San-Diego, Calif.). The cells were grown for 14 days with RPMI and 10% FBS medium in the presence of the indicated concentration of Compound 1 (PRT7000467). The quantification of the colony formation on soft agar was done using MTT reagent after solubilization of the agar (all the materials are supplied in the kit). The IC50 value was calculated using Prism software.

[1] = system: B16F10 murine melanoma cells; test: Anti-metastasis assay: lung metastases in mice implanted with B16F10 melanoma cells; format: in vivo, female B6D2F1 mice; conditions: i.p., start D3, foci count on D17 vs comparator mice; dose regimen of the value not stated (FIGS. 4A and B)
Experimental: Compound 1 and Compound 3 were tested for efficacy in inhibiting lung metastases in female B6D2F 1 mice implanted with B16F10 murine melanoma cells. Tumors were initiated on Day 1 (D1) by intravenously (i.v.) injecting 1×10^5 B16F10 tumor cells into the tail vein of test mice. Mice were sorted into three vehicle-treated control groups (n=20 or 10/group) and nine treatment groups (n=10/group). Compound 1 and Compound 3 monotherapies were administered at 10 mg/kg (2 mg/mL at 5 mL/kg) and at 20 mg/kg (4 mg/mL at 5 mL/kg), intraperitoneally (i.p.), daily for fourteen doses starting on D3 (qd×14 (start D3)). Compound 1 and Compound 3 monotherapies also were administered at 20 mg/kg (4 mg/mL at 5 mL/kg), i.p., twice daily for twenty-nine doses starting on D3 (bid×14.5 (start D3)). […]
The study endpoint was defined as 100 metastases per lung set in animals periodically sampled from the saline control group. […] All animals remaining on study were euthanized, their metastases were counted, and the mean±SEM foci count for each group was calculated. Efficacy was determined by an analysis of percent inhibition, the percent change in the mean foci count on D17 for treated versus comparator mice, and by statistical assessment of differences in foci counts between treated and comparator mice.

oxazolone-induced DTH = test: Oxazolone-induced delayed-type hypersensitivity (DTH), ear swelling; format: in vivo, BALB/c mice; conditions: oral, 1 hour before oxazolone challenge; compared with the control (FIG. 5)
Excerpt: Anti inflammatory assay A delayed-type hypersensitivity (DTH) reaction is an expression of cell-mediated immunity and plays a major role in the pathology and chronicity of many inflammatory disorders. Delayed-type hypersensitivity (DTH) reactions can be induced by various allergens, including oxazolone, 2,4-dinitrofluorobenzene (DNFB) and sheep red blood cells (SRBCs). One of the most characteristic DTH phenomenons is contact hypersensitivity, which is characterized by swelling and by increased tissue levels of cytokines. Contact hypersensitivity (CHS) is a T cell-mediated immune reaction in response to cutaneous sensitization and challenge with reactive haptens that are capable of binding directly to soluble and cell-associated proteins and recognized by T cells in the context of self-MHC products. The cells that recognize antigen-protein complex in the skin are the Langerhans cells (LCs). […]
Ear swelling response will be determined by ear thickness measured with a micrometer before and 24 hours after oxazolone challenge and reported as the mean change in ear thickness (ΔT±S.E.M.). Percent suppression of ear swelling response will be calculated as % suppression=[1−(ΔT of sensitized mice exposed to experimental treatment/ΔT of sensitized mice exposed to vehicle treatment)]×100.

Structure (SMILES)	toxicity to cells grown in two-dimension (A375 cells)	soft agar colony formation (A375 melanoma cells)	efficacy in inhibiting lung metastases (percent inhibition of mean foci count) [1] [%]	anti-inflammatory activity (ear swelling response) (oxazolone-induced DTH)	LD50 in the soft agar colony formation assay (A375 melanoma cells; A375 cells) [µM]
Cc1cc(S(=O)(=O)Nc2ncccn2)ccc1NC(=O)/C(=C\c1cccs1)NC(=O)c1cccs1 [Compound 3]	not toxic	inhibit soft agar colony formation	45	same anti-inflammatory activity as the control	
Cc1cc(C)nc(NS(=O)(=O)c2ccc(NC(=O)/C(=C\c3cccs3)NC(=O)c3cccs3)cc2)n1 [Compound 1]	not toxic	inhibits soft agar colony formation	51	same anti-inflammatory activity as the control	2.8 to 5.6
